Measurements from patent US20180016244A1, “DEUTERIUM-SUBSTITUTED OXADIAZOLES” (Auspex Pharmaceuticals, Inc., priority 2015, published 2018).

Test: In vitro human liver microsomal stability assay
Format: in vitro ADME
Conditions: human liver microsomes 2 mg per mL protein, NADPH-generating system, 1 μM test compound, 37±1° C., 0-240 min, change relative to non-deuterated d0 (Example 1); for Half-Life % change over d0: degradation half-life
Experimental: In Vitro Liver Microsomal Stability Assay
Human liver microsomal stability assays were conducted at 2 mg per mL liver microsome protein with an NADPH-generating system consisting of NADP (1 mM, pH 7.4), […] (5 mM, pH 7.4), and glucose-6-phosphate dehydrogenase (I unit/mL).
Test compounds were prepared as solutions in DMSO and added to the assay mixture (1 μM, final concentration in incubation) to be incubated at 37±1° C. Reactions were initiated with the addition of cofactor and were stopped at 0, 60, 120, or 240 min after cofactor addition with stop reagent (0.2 mL acetonitrile). Samples were centrifuged (920×g for 10 min at 10° C.) in 96-well plates. Supernatant fractions were analyzed by LC-MS/MS to determine the percent remaining and estimate the degradation half-life of the test compounds.

Compound	Clearance % change over d0 [%]	Half-Life % change over d0 [%]
CC(C)Oc1ccc(-c2nc(-c3cccc4c3CC[C@@H]4NCCO)no2)cc1C#N [Example 1, 5-[3-[(1S)-1-[(2-hydroxyethyl)amino]-2,3-dihydro-1H-inden-4-yl]-1,2,4-oxadiazol-5-yl]-2-(propan-2-yloxy)benzonitrile, reference compound]	0.00	0.0
[2H]C(C)(C)Oc1ccc(-c2nc(-c3cccc4c3CC[C@@H]4NCCO)no2)cc1C#N [Example 2, 5-[3-[(1S)-1-[(2-hydroxyethyl)amino]-2,3-dihydro-1H-inden-4-yl]-1,2,4-oxadiazol-5-yl]-2-[(2-^2H)propan-2-yloxy]benzonitrile]	1	−9.0
[2H]C([2H])([2H])C([2H])(Oc1ccc(-c2nc(-c3cccc4c3CC[C@@H]4NCCO)no2)cc1C#N)C([2H])([2H])[2H] [Example 3, 5-[3-[(1S)-1-[(2-hydroxyethyl)amino]-2,3-dihydro-1H-inden-4-yl]-1,2,4-oxadiazol-5-yl]-2-[(^2H7)propan-2-yloxy]benzonitrile]	7	0.0
[2H]C(C)(C)Oc1ccc(-c2nc(-c3cccc4c3CC[C@@H]4NC([2H])([2H])C([2H])([2H])O)no2)cc1C#N [Example 4, 5-[3-[(1S)-1-[[2-hydroxy(^2H4)ethyl]amino]-2,3-dihydro-1H-inden-4-yl]-1,2,4-oxadiazol-5-yl]-2-[(2-^2H)propan-2-yloxy]benzonitrile]	5	−4.6
[2H]C([2H])([2H])C([2H])(Oc1ccc(-c2nc(-c3cccc4c3CC[C@@H]4NC([2H])([2H])C([2H])([2H])O)no2)cc1C#N)C([2H])([2H])[2H] [Example 5, 5-[3-[(1S)-1-[[2-hydroxy(^2H7)ethyl]amino]-2,3-dihydro-1H-inden-4-yl]-1,2,4-oxadiazol-5-yl]-2-[(^2H4)propan-2-yloxy]benzonitrile]	11	0.0
[2H]C(C)(C)Oc1ccc(-c2nc(-c3cccc4c3CC[C@]4([2H])NCCO)no2)cc1C#N [Example 6, 5-[3-[(1S)-1-[(2-hydroxyethyl)amino]-2,3-dihydro(1-^2H)-1H-inden-4-yl]-1,2,4-oxadiazol-5-yl]-2-[(2-^2H)propan-2-yloxy]benzonitrile]	2	17.9
